Source: patent US10494683B2, “Nitrate- and nitrite-reducing probiotic feed additive” (The United States of America, as represented by the …, priority 2015, dated 2019)

How the values were obtained:
Holstein steers = assay: Ruminally cannulated steers given NaNO3 with or without strain NRRL 67118; assay type: in vivo; conditions: rumen samples of treated steers incubated in vitro
[1] = test system: mixed ruminal microorganisms; assay: CH4 production in vitro with mixed ruminal microorganisms; assay type: cell-based

Row | SMILES | dCH4/dt (Holstein steers; 83 mg NaNO3/kg body weight daily, Control 4.13) [b umol/ml per h] | Nitrate reduction (Holstein steers; Control 0.42) [e mM/hr] | Nitrite reduction (Holstein steers; Control 1.21) [c mM/hr] | CH4 production [1]
1 | O=[N+]([O-])[O-].[Na+] [NO3, NaNO3] | 2.22 | 0.54 | 1.38 | 
2 | O=N[O-].[Na+] [NO2, NaNO2] |  |  |  | zero
